“Also recorded” adds a separate entry of the source.
Key:
[1] = test system: estrogen receptor; assay: Estrogen receptor binding; conditions: 10 μM
Experimental: (§1) Dazucorilant is selective for GR over other nuclear hormone receptors, and a range of other receptors, enzymes, and ion channels. For example, dazucorilant has high selectivity for GR relative to the progesterone receptor (PR), androgen receptor, and estrogen receptor, showing no significant binding to these receptors at a concentration of 10 μM (0%, 1.5% and […], respectively).

[2] = target: T1, GR (Homo sapiens, UniProt P04150); assay: Inhibition of dexamethasone effect on TAT activity, human liver carcinoma cell line; assay type: cell-based; set-up: endogenous in cells; host or cells: human liver carcinoma cell line (probably HepG2, inferred); conditions: read-out: Ki, inhibition of dexamethasone effects on TAT activity
T1 sequence (P04150 1-777): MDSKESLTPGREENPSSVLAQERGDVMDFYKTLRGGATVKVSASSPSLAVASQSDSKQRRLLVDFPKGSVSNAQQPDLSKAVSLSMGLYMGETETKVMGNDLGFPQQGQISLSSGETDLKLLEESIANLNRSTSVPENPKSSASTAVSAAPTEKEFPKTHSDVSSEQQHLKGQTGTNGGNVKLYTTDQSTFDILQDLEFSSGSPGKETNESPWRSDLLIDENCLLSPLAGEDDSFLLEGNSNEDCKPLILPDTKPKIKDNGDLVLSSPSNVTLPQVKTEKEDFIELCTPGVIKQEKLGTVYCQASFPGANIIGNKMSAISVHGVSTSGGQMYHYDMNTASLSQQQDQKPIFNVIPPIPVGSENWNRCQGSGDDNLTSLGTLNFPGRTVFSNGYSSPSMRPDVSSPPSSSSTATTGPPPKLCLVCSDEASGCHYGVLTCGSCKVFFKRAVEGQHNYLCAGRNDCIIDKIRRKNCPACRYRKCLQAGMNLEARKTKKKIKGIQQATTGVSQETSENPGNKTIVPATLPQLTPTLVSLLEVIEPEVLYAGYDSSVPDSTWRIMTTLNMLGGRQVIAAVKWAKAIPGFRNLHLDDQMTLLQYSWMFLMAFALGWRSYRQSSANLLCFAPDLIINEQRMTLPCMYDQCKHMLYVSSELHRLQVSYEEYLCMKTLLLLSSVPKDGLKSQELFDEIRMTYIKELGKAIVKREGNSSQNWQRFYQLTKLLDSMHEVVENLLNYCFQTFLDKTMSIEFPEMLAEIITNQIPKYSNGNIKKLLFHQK
From the text: The term “glucocorticoid receptor modulator” (GRM) refers to any compound which modulates glucocorticoid binding to GR, or which modulates any biological response associated with the binding of GR to an agonist. For example, a GRM that acts as an agonist, such as dexamethasone, increases the activity of tyrosine aminotransferase (TAT) in HepG2 cells (a human liver hepatocellular carcinoma cell line; ECACC, UK). A GRM that acts as an antagonist, such as mifepristone, decreases the activity of tyrosine aminotransferase (TAT) in HepG2 cells.

[3] = target: T2, GR (Rattus norvegicus, UniProt P06536); assay: Inhibition of dexamethasone effect on TAT activity, rat hepatoma cell line; assay type: cell-based; conditions: read-out: Kc, inhibition of dexamethasone effects on TAT activity
T2 construct: endogenous in cells
T2 sequence (P06536 1-795): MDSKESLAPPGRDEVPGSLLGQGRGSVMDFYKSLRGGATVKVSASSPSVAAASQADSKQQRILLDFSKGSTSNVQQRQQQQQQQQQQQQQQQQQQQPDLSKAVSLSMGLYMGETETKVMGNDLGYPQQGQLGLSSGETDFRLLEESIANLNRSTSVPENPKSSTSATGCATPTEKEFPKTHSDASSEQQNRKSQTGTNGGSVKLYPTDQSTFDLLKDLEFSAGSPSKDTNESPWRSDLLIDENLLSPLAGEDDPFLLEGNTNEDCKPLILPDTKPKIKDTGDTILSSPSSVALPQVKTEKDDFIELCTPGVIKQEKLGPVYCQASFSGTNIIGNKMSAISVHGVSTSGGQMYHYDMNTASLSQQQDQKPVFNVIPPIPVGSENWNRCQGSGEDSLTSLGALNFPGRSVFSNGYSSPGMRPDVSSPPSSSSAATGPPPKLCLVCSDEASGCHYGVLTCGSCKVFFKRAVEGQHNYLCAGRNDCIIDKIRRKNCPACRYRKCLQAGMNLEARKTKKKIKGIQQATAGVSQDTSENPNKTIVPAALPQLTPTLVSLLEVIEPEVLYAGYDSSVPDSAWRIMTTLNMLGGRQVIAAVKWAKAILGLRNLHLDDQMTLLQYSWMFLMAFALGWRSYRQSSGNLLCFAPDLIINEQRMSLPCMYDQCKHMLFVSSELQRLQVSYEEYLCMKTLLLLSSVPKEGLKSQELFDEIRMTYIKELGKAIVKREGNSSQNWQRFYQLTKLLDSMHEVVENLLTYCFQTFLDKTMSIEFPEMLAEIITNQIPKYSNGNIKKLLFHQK

[4] = target: T1, GR; assay: GR binding (competitive, reversible); conditions: read-out: affinity for GR
Experimental: as §1

[5] = Safety and tolerability in healthy volunteers; assay type: in vivo
Experimental: (§2) An adaptive dose, double-blind, placebo-controlled study (NCT04249323, EudraCT 2019-004258-27) was conducted in 110 healthy male and female volunteers (18-60 years old; BMI 18-30 kg/m2; weight≤102 kg; “First In Human” (FIH) study).

[6] = test system: Wobbler mouse; assay: Wobbler mouse model of ALS; assay type: in vivo; conditions: administration for 21 days
[7] = Brain penetration study, multiple oral dose PK in plasma and CSF; assay type: in vivo, human
Experimental: as §2

[8] = target: T1, GR; assay: Dexamethasone-induced TAT activity in primary hepatocytes from humans; assay type: cell-based; set-up: endogenous in cells; host or cells: primary hepatocytes from humans
Experimental: as §1

For `O=C(c1ccccn1)[C@]12Cc3cnn(-c4ccc(F)cc4)c3C=C1CCN(S(=O)(=O)c1ccc(C(F)(F)F)cc1)C2` [dazucorilant, (R)-(1-(4-fluorophenyl)-6-((4-(trifluoromethyl)phenyl)sulfonyl)-4,4a, 5,6,7,8-hexahydro-1-H-pyrazolo[3,4-g]isoquinolin-4a-yl) (pyridin-2-yl)methanone], the “binding to estrogen receptor” value [1] was 37.5%, the Ki [2] was 14 nM and the Ki [3] was 4.2 nM. The Ki [4] was 0.28 nM, the “single doses considered safe and well tolerated” value ([5]; both, human, in vivo) was “up to 1000 mg” and the “serious or severe treatment-emergent adverse events” value ([5]; healthy volunteers) was “No serious or severe treatment-emergent adverse events were reported”. For the same compound, the “most common adverse events” value ([5]; human, in vivo) was “gastrointestinal, nervous system, musculoskeletal, and connective tissue disorders”, the safety concerns ([5]; human, in vivo) was “no significant safety concerns were identified” and the “severity of adverse events” value ([5]; human, in vivo) was “mild to moderate”. The “multiple doses considered safe” value ([5]; multiple doses QD) was “up to 300 mg QD”, the “multiple doses safe and generally well tolerated” value ([5]; multiple doses QD) was “up to 200 mg QD” and the forepaw atrophy [6] was “reducing forepaw atrophy”. For the same compound, the neurodegeneration and inflammation [6] was “inhibiting neurodegeneration and inflammation”, the “performance in the rotarod test” value [6] was “overcoming the impaired performance in the rotarod test” and the “dose proportionality of exposures” value ([7]; 300 mg relative to 150 mg, daily for 14 days) was “greater than dose-proportional increase in dazucorilant exposures”. The “detection in the CSF” value ([7]; 1 week of QD dosing, 150 mg and 300 mg, fed) was “detectable in the CSF in all study participants”, the “time to steady state of exposure” value ([7]; QD dosing) was at most 1 week and the “distribution to the cerebrospinal fluid (CSF)” value ([7]; oral administration, healthy volunteers) was “distribution of dazucorilant is observed in the cerebrospinal fluid; also recorded: distribution to the CSF was observed”. For the same compound, the “steady state exposures (Cmax, AUC0-24), 300 vs. 150 mg” value ([7]; steady state, QD dosing) was “approximately 4 fold” and the “dexamethasone-induced increase in TAT activity” value [8] was “prevented the dexamethasone-induced increase in TAT activity”.
